Some test systems named below: 786-0 renal; A549 NSCLC; ACHN renal; CCRF-CEM leukemia; K-562 leukemia; NCI-H460 lung; SK-OV-3 ovarian; SR leukemia; TK-10 renal; UACC-257 melanoma; UACC-62 melanoma.
What all share (assay): inhibition of tumour cell growth, NCI panel, 48 h

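Five compound concentrations were applied to cells in 96-well plates for 48 hours; endpoints were derived by simple linear interpolation of the resulting dose-response curve. TGI denotes the concentration required for complete inhibition of growth.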

With `CCOc1ccc(Nc2nc(N)nc(N)c2N=O)cc1`, the TGI with 786-0 renal, in the assay on A549 NSCLC, in the assay on ACHN renal, in the assay on CCRF-CEM leukemia, in the assay with K-562 leukemia and with NCI-H460 lung was over 100 µM each time. The TGI in the assay with SK-OV-3 ovarian, with SR leukemia, with TK-10 renal, in the assay with UACC-257 melanoma and in the assay with UACC-62 melanoma was over 100 µM throughout.
For the compound `O=[N+]([O-])C(/C=C(\Cl)[N+](=O)[O-])=C(Nc1ccccc1)Nc1ccccc1`, the TGI was 14.3 µM in the assay with 786-0 renal; 31.8 µM in the assay with A549 NSCLC; 31.9 µM in the assay on ACHN renal; 5.36 µM with CCRF-CEM leukemia; over 29.5 µM in the assay with K-562 leukemia; 30 µM in the assay on NCI-H460 lung. The TGI was 34.5 µM with SK-OV-3 ovarian; 6.02 µM with SR leukemia; 25.4 µM in the assay on TK-10 renal; 27.1 µM in the assay with UACC-257 melanoma; 21.3 µM with UACC-62 melanoma.
`Cc1c(-c2ccccc2)oc(=O)c2ccccc12`: the TGI in the assay with 786-0 renal is 51.2 µM; with A549 NSCLC it was over 100 µM; in the assay on ACHN renal, 98.2 µM; in the assay on CCRF-CEM leukemia, 48.2 µM; with K-562 leukemia it was over 100 µM; in the assay on NCI-H460 lung, over 100 µM. Besides, the TGI stood at 54.4 µM in the assay on SK-OV-3 ovarian; 65.4 µM with SR leukemia; 60.7 µM in the assay on TK-10 renal; 30.7 µM in the assay on UACC-257 melanoma; 33 µM with UACC-62 melanoma.
`Nc1ncnc2c1ncn2CCCNO`: the TGI with 786-0 renal, in the assay with A549 NSCLC, with ACHN renal, in the assay with CCRF-CEM leukemia, with K-562 leukemia and in the assay with NCI-H460 lung was over 100 µM in each case. The TGI with SK-OV-3 ovarian, with SR leukemia, with TK-10 renal, with UACC-257 melanoma and with UACC-62 melanoma was over 100 µM throughout.
Regarding `CC1CC[C@@]2(OC1)OC1C[C@H]3[C@@H]4CC=C5C[C@@H](OC6OC(CO)C(OC7OC(CO)C(O)C(O)C7O)C(O)C6OC6OC(C)C(O)C(O)C6O)CC[C@]5(C)[C@H]4CC[C@]3(C)C1[C@@H]2C` (some centres not stated), the TGI was found to be 0.88 µM with 786-0 renal; 2.15 µM in the assay on A549 NSCLC; 4.4 µM with ACHN renal; 1.48 µM in the assay on CCRF-CEM leukemia; 1.09 µM with K-562 leukemia; 1.76 µM in the assay with NCI-H460 lung. Besides, the TGI in the assay on SK-OV-3 ovarian turned out to be 6.96 µM; with SR leukemia, 0.852 µM; in the assay with TK-10 renal it was 3.73 µM; in the assay on UACC-257 melanoma, 1.02 µM; in the assay with UACC-62 melanoma it was 0.876 µM.
For `CC[P+](c1ccccc1)(N(C)C)N(C)C`, the TGI in the assay on 786-0 renal, with A549 NSCLC, with ACHN renal, with CCRF-CEM leukemia, in the assay with K-562 leukemia and in the assay with NCI-H460 lung was over 100 µM throughout. Further, the TGI in the assay with SK-OV-3 ovarian, with SR leukemia, with TK-10 renal, in the assay with UACC-257 melanoma and with UACC-62 melanoma was over 100 µM in each case.
On to `CC(C)(C)[C@H]1NC(=O)CN1C(=O)OCc1ccccc1`, for which the TGI in the assay on 786-0 renal, with A549 NSCLC, in the assay on ACHN renal, with CCRF-CEM leukemia, with K-562 leukemia and with NCI-H460 lung was over 100 µM in each case. The TGI with SK-OV-3 ovarian, in the assay with SR leukemia, with TK-10 renal, in the assay with UACC-257 melanoma and in the assay on UACC-62 melanoma was over 100 µM in each case.
With `CN=C1C=C(/N=C2/C=C(N/C(=C\C#N)C(C)(C)O)OC2(C)C)OC1(C)C`, the TGI in the assay on 786-0 renal was over 100 µM; with A549 NSCLC, over 100 µM; with ACHN renal, over 100 µM; in the assay on CCRF-CEM leukemia, over 74 µM; in the assay with K-562 leukemia, 80.4 µM; in the assay with NCI-H460 lung, over 100 µM. For the same compound, the TGI with SK-OV-3 ovarian is over 73.6 µM; with SR leukemia, over 68.5 µM; in the assay on TK-10 renal, over 100 µM; with UACC-257 melanoma it was over 100 µM; in the assay on UACC-62 melanoma, over 85.8 µM.
On to `CCOC(=O)CC1C(C(=O)OCC)=Cn2c([nH]c3cccc4cccc2c43)=C1C(=O)OCC` (configuration not stated), for which the TGI in the assay on 786-0 renal, in the assay with A549 NSCLC, in the assay with ACHN renal, in the assay with CCRF-CEM leukemia, in the assay with K-562 leukemia and with NCI-H460 lung was over 100 µM in each case. Besides, the TGI in the assay with SK-OV-3 ovarian, in the assay on SR leukemia, in the assay with TK-10 renal, in the assay with UACC-257 melanoma and in the assay with UACC-62 melanoma was over 100 µM each time.
For the compound `CC1CC(C)(C)CC(OCCN2CCCCC2)(c2ccccc2)C1` (configuration not stated), the TGI was 22.6 µM in the assay with 786-0 renal; 24.6 µM with A549 NSCLC; 30.3 µM with ACHN renal; 24.9 µM in the assay on CCRF-CEM leukemia; 28.7 µM with K-562 leukemia; 17.5 µM with NCI-H460 lung. In addition, the TGI worked out at 28.3 µM with SK-OV-3 ovarian; 20.4 µM with SR leukemia; 26.7 µM in the assay with TK-10 renal; 24.2 µM in the assay with UACC-257 melanoma; 29.6 µM with UACC-62 melanoma.
Turning to `COC(=O)c1sc2c(Cl)c(Cl)sc2c1Cl`, the TGI in the assay with 786-0 renal, in the assay on A549 NSCLC, in the assay on ACHN renal, in the assay with CCRF-CEM leukemia, with K-562 leukemia and with NCI-H460 lung was over 100 µM throughout. The TGI in the assay on SK-OV-3 ovarian is over 100 µM; with SR leukemia it was over 100 µM; with TK-10 renal, 82 µM; in the assay with UACC-257 melanoma, over 100 µM; with UACC-62 melanoma, over 100 µM.
For `COc1ccccc1-c1cc(=O)c2cccnc2[nH]1`, the TGI with 786-0 renal, with A549 NSCLC, with ACHN renal, in the assay on CCRF-CEM leukemia, in the assay on K-562 leukemia and with NCI-H460 lung was over 100 µM each time. Besides, the TGI with SK-OV-3 ovarian, with SR leukemia, in the assay on TK-10 renal, in the assay on UACC-257 melanoma and in the assay with UACC-62 melanoma was over 100 µM in each case.

(Values after PubChem BioAssay (NCI).)
